Article PMC8078842 (PLoS Neglected Tropical Diseases, 2021)
Like-named read-outs stand apart in the source and are kept apart here.

Experiments:
[1] = test system: Potassium Channel, ATP-Sensitive; assay: CNS side effect panel, [^3H]Glibenclamide; format: binding; details: pentamidine 1.0E^-5 M
Melatonin, Non-selective = assay: CNS side effect panel, [^125I]-2-Iodomelatonin; format: binding; details: pentamidine 1.0E^-5 M
[2] = test system: Glutamate,NMDA,Glycine (Stry-insens Site) (Ionot); assay: CNS side effect panel, [^3H]-MDL-105,519; format: binding; details: pentamidine 1.0E^-5 M
[3] = test system: Trypanosoma brucei gambience; details: cited from earlier work
[4] = test system: Glutamate, Kainate Site (Ionotropic); assay: CNS side effect panel, [^3H]Kainic acid; format: binding; details: pentamidine 1.0E^-5 M

For `N=C(N)c1ccc(OCCCCCOc2ccc(C(=N)N)cc2)cc1` [Pentamidine, 1,5-bis-4ρ-amidinophenoxypentane], the “Percent Inhibition” value [1] was 6.07%, the “Percent Inhibition” value (Melatonin, Non-selective) was 23.45% and the “Percent Inhibition” value [2] was -17.52%. For the same molecule, the “Affinity, Trypanocidal” value ([3]; Time-dependent) was 0.01 µM, the “trypanocidal activity in vitro” value [3] was “around 10 nM” and the IC50 ([3]; comparator for relative selectivity, read-out: Trypanocidal Activity (IC50), printed in column Ki) was 10 nM. The IC50 ([3]; read-out: IC50) was 14.7 ± 4.7 nM and the “Percent Inhibition” value [4] was -13.63%.
